Experimental data published in PubChem BioAssay (NCI).
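Test compounds were applied to cells in 96-well plates for 48 hours at 5 doses. TGI marks complete inhibition of growth.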

Assays:
Experiment in all cases: NCI-60 cell line screen, 48 h
U251 CNS = tested on: U251 CNS
MDA-N = tested on: MDA-N
IGROV1 ovarian = tested on: IGROV1 ovarian
SK-MEL-2 melanoma = tested on: SK-MEL-2 melanoma
SF-295 CNS = tested on: SF-295 CNS
UACC-257 melanoma = tested on: UACC-257 melanoma
NCI-H522 lung = tested on: NCI-H522 lung
PC-3 prostate = tested on: PC-3 prostate
K-562 leukemia = tested on: K-562 leukemia
KM12 colon = tested on: KM12 colon
M14 melanoma = tested on: M14 melanoma
EKVX NSCLC = tested on: EKVX NSCLC
NCI-H460 lung = tested on: NCI-H460 lung
LOX IMVI melanoma = tested on: LOX IMVI melanoma
NCI-H23 lung = tested on: NCI-H23 lung
HL-60(TB) leukemia = tested on: HL-60(TB) leukemia
COLO 205 colon = tested on: COLO 205 colon
SF-268 CNS = tested on: SF-268 CNS
ACHN renal = tested on: ACHN renal
BT-549 breast = tested on: BT-549 breast
HT29 colon = tested on: HT29 colon
TK-10 renal = tested on: TK-10 renal
SW-620 colon = tested on: SW-620 colon
DU-145 prostate = tested on: DU-145 prostate
OVCAR-5 ovarian = tested on: OVCAR-5 ovarian
HCT-116 colon = tested on: HCT-116 colon
OVCAR-3 ovarian = tested on: OVCAR-3 ovarian
SNB-75 CNS = tested on: SNB-75 CNS
SK-OV-3 ovarian = tested on: SK-OV-3 ovarian
CCRF-CEM leukemia = tested on: CCRF-CEM leukemia
UACC-62 melanoma = tested on: UACC-62 melanoma
A549 NSCLC = tested on: A549 NSCLC
MOLT-4 leukemia = tested on: MOLT-4 leukemia
SN12C renal = tested on: SN12C renal
OVCAR-4 ovarian = tested on: OVCAR-4 ovarian
MDA-MB-231 breast = tested on: MDA-MB-231 breast
HOP-62 NSCLC = tested on: HOP-62 NSCLC
SNB-19 CNS = tested on: SNB-19 CNS
NCI/ADR-RES ovarian = tested on: NCI/ADR-RES ovarian
HCC-2998 colon = tested on: HCC-2998 colon
NCI-H226 lung = tested on: NCI-H226 lung
MDA-MB-435 = tested on: MDA-MB-435
A498 renal = tested on: A498 renal
RPMI-8226 leukemia = tested on: RPMI-8226 leukemia
HS 578T breast = tested on: HS 578T breast
CAKI-1 renal = tested on: CAKI-1 renal
UO-31 renal = tested on: UO-31 renal
786-0 renal = tested on: 786-0 renal
MCF7 breast = tested on: MCF7 breast
SF-539 CNS = tested on: SF-539 CNS
T-47D breast = tested on: T-47D breast
SK-MEL-5 melanoma = tested on: SK-MEL-5 melanoma
SR leukemia = tested on: SR leukemia
MALME-3M melanoma = tested on: MALME-3M melanoma
SK-MEL-28 melanoma = tested on: SK-MEL-28 melanoma
HCT-15 colon = tested on: HCT-15 colon
OVCAR-8 ovarian = tested on: OVCAR-8 ovarian

In the case of `COC(=O)c1c2c(cc3c1CCC3)CCC2`, the TGI (U251 CNS) is reported as greater than 100 µM, the TGI (MDA-N) is reported as greater than 100 µM and the TGI (IGROV1 ovarian) is reported as greater than 100 µM. The TGI (SK-MEL-2 melanoma) was 64.3 µM, the TGI (SF-295 CNS) was greater than 100 µM and the TGI (UACC-257 melanoma) was greater than 100 µM. For the same molecule, the TGI (NCI-H522 lung) was greater than 100 µM, the TGI (PC-3 prostate) was greater than 100 µM and the TGI (K-562 leukemia) was greater than 100 µM. For the same molecule, the TGI (KM12 colon) was greater than 100 µM, the TGI (M14 melanoma) was greater than 100 µM and the TGI (EKVX NSCLC) was greater than 100 µM. The TGI (NCI-H460 lung) was greater than 100 µM, the TGI (LOX IMVI melanoma) was greater than 100 µM and the TGI (NCI-H23 lung) was greater than 100 µM. It also gave a TGI (HL-60(TB) leukemia) of 38.4 µM, a TGI (COLO 205 colon) greater than 100 µM and a TGI (SF-268 CNS) greater than 100 µM. The TGI (ACHN renal) was greater than 100 µM, the TGI (BT-549 breast) was greater than 100 µM and the TGI (HT29 colon) was greater than 100 µM. The TGI (TK-10 renal) was greater than 100 µM, the TGI (SW-620 colon) was greater than 100 µM and the TGI (DU-145 prostate) was greater than 100 µM. For the same molecule, the TGI (OVCAR-5 ovarian) was greater than 100 µM, the TGI (HCT-116 colon) was greater than 100 µM and the TGI (OVCAR-3 ovarian) was greater than 100 µM. For the same molecule, the TGI (SNB-75 CNS) was greater than 100 µM, the TGI (SK-OV-3 ovarian) was greater than 100 µM and the TGI (CCRF-CEM leukemia) was 53.3 µM. For the same molecule, the TGI (UACC-62 melanoma) was greater than 100 µM, the TGI (A549 NSCLC) was greater than 100 µM and the TGI (MOLT-4 leukemia) was greater than 100 µM. For the same molecule, the TGI (SN12C renal) was greater than 100 µM, the TGI (OVCAR-4 ovarian) was greater than 100 µM and the TGI (MDA-MB-231 breast) was greater than 100 µM. It also gave a TGI (HOP-62 NSCLC) greater than 100 µM, a TGI (SNB-19 CNS) greater than 100 µM and a TGI (NCI/ADR-RES ovarian) greater than 100 µM. The TGI (HCC-2998 colon) was greater than 100 µM, the TGI (NCI-H226 lung) was greater than 100 µM and the TGI (MDA-MB-435) was greater than 100 µM. The TGI (A498 renal) was 90.3 µM, the TGI (RPMI-8226 leukemia) was 52.4 µM and the TGI (HS 578T breast) was greater than 100 µM. It also gave a TGI (CAKI-1 renal) greater than 100 µM, a TGI (UO-31 renal) greater than 100 µM and a TGI (786-0 renal) greater than 100 µM. It also gave a TGI (MCF7 breast) greater than 100 µM, a TGI (SF-539 CNS) greater than 100 µM and a TGI (T-47D breast) of 43.9 µM. For the same molecule, the TGI (SK-MEL-5 melanoma) was 29.5 µM, the TGI (SR leukemia) was 44.8 µM and the TGI (MALME-3M melanoma) was greater than 100 µM. The TGI (SK-MEL-28 melanoma) was greater than 100 µM, the TGI (HCT-15 colon) was greater than 100 µM and the TGI (OVCAR-8 ovarian) was greater than 100 µM.
